According to patent US8114862B2, “TGR5 modulators and methods of use thereof” (Intercept Pharmaceuticals, Inc., priority 2008, dated 2012):
Read-outs that look alike come from different tables or passages of the source. Marks after values point to notes of the source that are not given here. One block for each compound: values may come before it.

What was measured:
in vitro [1] = conditions: human, s9
[2] = Choleretic effect (bile flow) in bile fistula rat, id and iv infusion; format: in vivo; conditions: for SV0: maximum bile secretion rate: 1 (μmol/min)/kg bw over 1 h
FXR = target: T1, FXR (Homo sapiens, UniProt Q96RI1); test: Alphascreen coactivator recruitment assay; format: biochemical; parameters: 10 nM of purified GST-tagged FXR-LBD protein; conditions: Table 8
T1 sequence (Q96RI1 262-486 limits assumed): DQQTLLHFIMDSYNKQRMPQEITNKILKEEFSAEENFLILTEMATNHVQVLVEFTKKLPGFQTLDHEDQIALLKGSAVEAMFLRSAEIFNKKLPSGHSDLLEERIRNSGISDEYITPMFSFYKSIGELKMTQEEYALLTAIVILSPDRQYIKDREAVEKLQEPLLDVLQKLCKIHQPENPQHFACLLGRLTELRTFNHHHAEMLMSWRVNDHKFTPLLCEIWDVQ

diet-induced obese mice = conditions: 0.5% w/w in diet; cited from earlier work
LXRα = target: T2, LXRα (Homo sapiens, UniProt Q13133); test: LXR coactivator recruitment (alphascreen); format: biochemical
T2 sequence (Q13133 1-447): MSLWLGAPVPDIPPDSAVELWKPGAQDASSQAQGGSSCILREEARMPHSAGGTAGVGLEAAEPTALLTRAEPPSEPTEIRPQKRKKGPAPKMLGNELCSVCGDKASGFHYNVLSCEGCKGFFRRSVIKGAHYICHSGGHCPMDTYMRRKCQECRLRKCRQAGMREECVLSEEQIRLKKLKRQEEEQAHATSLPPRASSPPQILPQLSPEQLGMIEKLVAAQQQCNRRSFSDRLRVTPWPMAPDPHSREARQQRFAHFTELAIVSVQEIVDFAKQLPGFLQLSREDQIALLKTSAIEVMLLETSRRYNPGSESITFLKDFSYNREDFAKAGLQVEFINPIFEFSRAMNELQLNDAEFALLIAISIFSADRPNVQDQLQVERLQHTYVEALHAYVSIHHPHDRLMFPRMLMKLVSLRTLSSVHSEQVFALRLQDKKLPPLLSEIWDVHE

[3] = Critical micellar concentration by surface tension; format: physicochemical; conditions: […] NaCl water solution
Procedure: The critical micellar concentration (CMC) was determined by surface tension (ST) measurements using a maximum bubble-pressure method which give surface tension values […] by potential impurities like static methods are. The tensiometer was a […] Research Corp., Milwaukee, Wis.) equipped with two glass probes of 0.5 and 4.0 mm diameters connected to a source of nitrogen. […] The surface tension values were plotted against the logarithm of the bile salt concentration; the regression lines corresponding to the two parts of the curve (monomeric and micellar phases) were calculated using the method of least squares, and the intersection of the lines was taken as the CMC value. From the ST vs concentration curves the value of the surface tension at the CMC (equilibrium between monomers and multimers species) was also calculated giving information about the detergency power which is related to the size of the micelles with associate surface tension lowering capacity. The CMC was evaluated by surface tension measurements in non equilibrium conditions i.e. in conditions that impurities slightly affect the surface tension results (FIG. 10).

intestinal bacteria = test: Metabolic stability in human stool culture (7α-dehydroxylation); format: in vitro ADME
Procedure: Homogenized fresh human stools (500 mg) were transferred into sterile vials to which 5 mL of sterilized chopped meat-glucose medium (Scott Lab., Fiskville, R.I.) was added. BA was then added at a final concentration of 0.05 mM. […] The samples were centrifuged at 3500 rpm for 10 min; from the supernatant the BA were isolated by C-18 solid-phase extraction and analyzed by TLC and HPLC-ES-MS/MS.
Thin-layer chromatography (TLC), utilizing silica gel 0.25 mm thickness plates (Merck, Darmstat, Germany), was employed as the first screening test. The solvent system used for the separation of conjugated BA was composed of propionic acid/isoamyl acetate/water/N-propanol (3:4:1:2, v/v/v/v; solvent I), and that of the unconjugated BA was acetic acid/carbon tetrachloride/isopropyl ether/isoamyl acetate/water/N-propanol/benzene (1:4:6:8:2:2, v/v/v/v/v/v; solvent II).

TGR5 = target: T3, TGR5 (Homo sapiens, UniProt Q8TDU6); test: TGR5 receptor in vitro assay (Table 1); format: cell-based
T3 sequence (Q8TDU6 1-330): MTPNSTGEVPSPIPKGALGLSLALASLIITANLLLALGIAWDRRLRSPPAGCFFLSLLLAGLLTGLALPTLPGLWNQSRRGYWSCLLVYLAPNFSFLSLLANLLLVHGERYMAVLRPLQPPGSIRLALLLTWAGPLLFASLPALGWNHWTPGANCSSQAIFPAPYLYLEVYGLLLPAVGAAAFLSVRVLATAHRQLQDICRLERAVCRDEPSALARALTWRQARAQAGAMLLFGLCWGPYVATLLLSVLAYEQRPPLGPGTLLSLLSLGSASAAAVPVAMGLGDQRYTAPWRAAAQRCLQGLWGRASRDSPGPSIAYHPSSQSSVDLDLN

[4] = Octanol/water partition coefficient (shake-flask); format: physicochemical; conditions: pH 8
[5] = Biliary secretion and metabolism in bile fistula rat, id and iv infusion; conditions: rat, bile, 1 μmol/kg/min
CAR = target: T4, CAR (Homo sapiens, UniProt Q14994); test: CAR coactivator recruitment (Lanthascreen); format: biochemical; conditions: for EC50: read-out: CAR Activation EC50
T4 construct: purchased Invitrogen
T4 sequence (Q14994 109-352 limits assumed): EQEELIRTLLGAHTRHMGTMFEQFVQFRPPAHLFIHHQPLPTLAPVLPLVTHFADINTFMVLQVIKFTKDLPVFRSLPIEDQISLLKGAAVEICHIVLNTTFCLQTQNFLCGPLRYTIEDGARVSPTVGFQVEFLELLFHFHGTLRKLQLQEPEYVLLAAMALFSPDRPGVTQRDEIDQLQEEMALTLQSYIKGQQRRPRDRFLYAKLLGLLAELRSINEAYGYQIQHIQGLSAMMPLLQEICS
Procedure: CAR: Coactivator Recruitment (Lanthascreen)
Lanthascreen assay (Invitrogen) was used for nulear receptor selectivity assay. The kit uses a terbium-labeled anti-GST antibody, a fluorescein-labeled coactivator peptide, and a NR ligand-binding domain that is tagged with glutathione-S-transferase (GST) in a homogenous mix-and-read assay format. […] Following 1 hour incubation in the dark, TR-FRET measurements were made in the Envision. […] The data was analyzed using GraphPad Prism using the sigmoidal curve equation with variable slope to obtain EC50 values.

PPARδ = target: T5, PPARδ (Homo sapiens, UniProt Q03181); test: PPARδ coactivator recruitment assay
T5 sequence (Q03181 211-439 limits assumed): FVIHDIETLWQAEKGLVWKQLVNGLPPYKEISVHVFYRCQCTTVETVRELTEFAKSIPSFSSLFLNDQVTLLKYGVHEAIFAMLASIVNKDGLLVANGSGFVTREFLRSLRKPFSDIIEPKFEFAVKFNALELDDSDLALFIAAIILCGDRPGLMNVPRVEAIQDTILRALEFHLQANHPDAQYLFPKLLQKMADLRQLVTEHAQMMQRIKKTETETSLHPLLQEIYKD

HepG2 cells [6] = test: cells; conditions: Homo sapiens, HepG2, 4 h, read-out: APOPTOSIS Caspase-3 activation EC50
VDR = target: T6, VDR (Homo sapiens, UniProt P11473); test: VDR coactivator recruitment assay
T6 sequence (P11473 127-423 limits assumed): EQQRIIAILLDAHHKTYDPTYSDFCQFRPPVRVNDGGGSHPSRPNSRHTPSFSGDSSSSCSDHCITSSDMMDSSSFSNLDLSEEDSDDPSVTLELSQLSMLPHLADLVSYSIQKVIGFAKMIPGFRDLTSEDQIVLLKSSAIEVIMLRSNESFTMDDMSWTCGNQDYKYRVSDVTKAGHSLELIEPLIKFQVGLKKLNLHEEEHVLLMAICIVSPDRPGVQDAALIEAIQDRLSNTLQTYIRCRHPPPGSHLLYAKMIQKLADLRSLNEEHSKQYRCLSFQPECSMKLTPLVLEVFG

bovine serum albumin [7] = target: T7, bovine serum albumin (Bos taurus, UniProt P02769); test: Albumin binding by equilibrium dialysis; format: in vitro ADME; conditions: 100 μM BA in 5% bovine serum albumin-saline, pH 7.2
Procedure: The extent of albumin binding was evaluated by equilibrium dialysis at a fixed BA-albumin ratio. BA was dissolved at a concentration of 100 μM in 5% bovine serum albumin-saline solution (pH 7.2) and left to stand for 24 h at 25° C. Two milliliters of this solution was dialyzed in cellulose sacs having a molecular weight cut-off of 12-14,000 against 25 ml of saline solution. The system was equilibrated by mechanical gently shaking for 72 h at 25° C. BA concentrations of the dialyzed solution (corresponding to the free unbound fraction) and of the starting solution were determined with HPLC-ESI-MS/MS in the same conditions of the previous analysis.
The percent of albumin binding was calculate from the initial BA concentration and from the unbound concentration in the dialyzed fraction.

HepG2 cells [8] = test: cells; conditions: Homo sapiens, HepG2, 4 h, read-out: NECROSIS LDH release EC50
[9] = values from literature; cited from earlier work
[10] = values from literature; cited from earlier work; remark: listed apart in the source
[11] = values from literature; cited from earlier work; remark: listed apart in the source
bovine serum albumin [12] = target: T7, bovine serum albumin; conditions: values from literature; cited from earlier work
in vitro [13] = conditions: human, HepG2 cells
HepG2 cells [14] = test: HepG2 cytotoxicity (ATP decrease); conditions: read-out: CYTOTOXICITY ATP decrease EC50; 4 h
Water solubility = conditions: 0.1 M HCl
wild-type mice = test: Locomotor activity of wild-type mice given Ex-4; format: in vivo, mouse
Text: To further evaluate the metabolic role of enhanced TGR5 signaling, we assessed the impact of transgenic overexpression of TGR5 in vivo in the context of DIO in mice. TGR5 transgenic mice (TGR5-Tg) were generated by oocyte injection of the bacterial artificial chromosome (BAC) RP23-278N1. […] The absence of weight gain in TGR5-Tg mice, in the wake of an increase in energy expenditure, was explained by a reduction of locomotor activity. Since GLP-1 receptor knockout mice display a marked hyperactivity (Hansotia et al., 2007, J. Clin. Invest. 117, 143-152), we administered the GLP-1 receptor agonist Ex-4 to wild-type mice in order to assess whether the decrease in locomotor activity in TGR5-Tg mice could be linked to GLP-1 secretion.

T7 sequence (P02769 25-607): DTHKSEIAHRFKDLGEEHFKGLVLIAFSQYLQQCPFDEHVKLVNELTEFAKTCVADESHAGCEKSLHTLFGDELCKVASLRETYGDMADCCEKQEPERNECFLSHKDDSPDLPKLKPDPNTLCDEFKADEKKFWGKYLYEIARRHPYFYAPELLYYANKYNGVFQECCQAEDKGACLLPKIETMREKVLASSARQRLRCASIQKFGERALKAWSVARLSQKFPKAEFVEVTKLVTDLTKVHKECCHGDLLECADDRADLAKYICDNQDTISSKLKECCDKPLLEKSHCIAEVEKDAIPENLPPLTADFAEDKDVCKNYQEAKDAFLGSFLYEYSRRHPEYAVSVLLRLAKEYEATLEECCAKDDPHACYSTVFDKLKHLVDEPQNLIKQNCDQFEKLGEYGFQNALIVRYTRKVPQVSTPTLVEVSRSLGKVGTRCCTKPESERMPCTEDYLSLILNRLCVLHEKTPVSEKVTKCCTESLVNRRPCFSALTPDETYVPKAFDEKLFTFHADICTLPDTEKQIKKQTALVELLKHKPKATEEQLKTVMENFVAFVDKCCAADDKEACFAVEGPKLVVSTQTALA

half-life (in vitro [1]): 8.5 min
Compound: O=c1ccc2ccc(O)cc2o1 [7-Hydroxy Coumarine, reference compound]

Compound: C[C@H](CCC(=O)O)[C@H]1CC[C@H]2[C@@H]3[C@H](O)C[C@@H]4C[C@H](O)CC[C@]4(C)[C@H]3C[C@H](O)[C@]12C [CA, cholic acid]
SV0: maximum bile secretion rate ([2]; id infusion): 64 ± 6 (μL/min)/kg bw | SV0: maximum bile secretion rate ([2]; iv infusion): (78 ± 8) (μL/min)/kg bw | FXR Activation EC50 (FXR): No activity | prevention and treatment of metabolic syndrome (diet-induced obese mice): efficiently prevents and treats metabolic syndrome | LXRα Activation EC50 (LXRα): No activity

Compound: C[C@H](CCC(=O)O)[C@H]1CC[C@H]2[C@@H]3[C@H](O)C[C@@H]4C[C@H](O)CC[C@]4(C)[C@H]3CC[C@]12C [CDCA, ChenoDeoxyCholicAcid]
CMC […] Na+ [3]: 3.2 mM | STCMC (surface tension at CMC) [3]: 45.5 Dyne/cm | maximum bile flow rate ([2]; duodenal infusion 1 μmol/kg/min, 1 hour): ≤ 4.8 mL/h/kg | SV0: maximum bile secretion rate ([2]; id infusion): 57 ± 7 (μL/min)/kg bw | SV0: maximum bile secretion rate ([2]; iv infusion): (51 ± 9) (μL/min)/kg bw | metabolism (7-dehydroxylation) to lithocholic acid (intestinal bacteria): almost completely metabolized | half-life time (intestinal bacteria; human): almost one hour | TGR5 Data Efficacy (TGR5): 100% | LogPA- (1-octanol-water partition coefficient, ionized species) [4]: 2.2 | fraction unbound at 4 h ([5]; iv): 0.04 | fraction unbound at 4 h ([5]; other: duodenal infusion (id)): 0.03 ± 0.01 | EC50 (CAR): > 250 µM | PPARδ Activation EC50 (PPARδ): No activity | EC50 (HepG2 cells [6]): 890 µM | VDR Activation EC50 (VDR): No activity | Albumin Binding (bovine serum albumin [7]): 93% | EC50 (HepG2 cells [8]): > 1000 µM | LXRα Activation EC50 (LXRα): No activity

Compound: C[C@H](CCC(=O)O)[C@H]1CCC2C3C(CC[C@@]21C)[C@@]1(C)CC[C@@H](O)CC1[C@@H](C)[C@@H]3O (some centres unmarked) [Compound 6MUDCA]
CMC […] Na+ [9]: 4.2* mM | Ws (water solubility, protonated species) [10]: 28* μM | LogPA- (1-octanol-water partition coefficient, ionized species) [11]: 1.3* | Albumin Binding (bovine serum albumin [12]): 80* %

Compound: C[C@H](CCC(=O)O)[C@H]1CC[C@H]2[C@@H]3CC[C@@H]4C[C@H](O)CC[C@]4(C)[C@H]3CC[C@]12C [LCA, lithocholic acid]
FXR Activation EC50 (FXR): No activity | CAR Activation EC50 (CAR): No activity | PPARδ Activation EC50 (PPARδ): No activity | EC50 at 4 h (in vitro [13]): 84 µM | EC50 (HepG2 cells [6]): 65 µM | VDR Activation EC50 (VDR): No activity | EC50 (HepG2 cells [8]): 105 µM | LXRα Activation EC50 (LXRα): No activity

Compound: C[C@H](CCC(=O)O)[C@H]1CC[C@H]2[C@@H]3[C@@H](O)C[C@@H]4C[C@H](O)CC[C@]4(C)[C@H]3CC[C@]12C [UDCA]
CMC […] Na+ [3]: 6.0 mM | STCMC (surface tension at CMC) [3]: 50.5 Dyne/cm | EC50 (HepG2 cells [14]): > 1000 µM | LogPA- (1-octanol-water partition coefficient, ionized species) [4]: 2.2 | Ws (water solubility, protonated species) (Water solubility): 7.5 µM | EC50 (CAR): > 250 µM | PPARδ Activation EC50 (PPARδ): No activity | VDR Activation EC50 (VDR): No activity | Albumin Binding (bovine serum albumin [7]): 94% | LXRα Activation EC50 (LXRα): No activity

Compound: Ex-4: the GLP-1 receptor agonist Ex-4
locomotor activity (wild-type mice): efficiently and dose-dependently reduced locomotor activity
